Like-named read-outs stand apart in the source and are kept apart here.
Tests used:
[1] = biological target: T1, CB1 receptor (Homo sapiens, UniProt P21554); type: binding
[2] = Lipophilicity LogD7.4; type: physicochemical; settings: n-octanol / 0.15 M sodium phosphate buffer pH 7.4, room temperature, 6 measurements
[3] = test system: CB1 receptor; settings: ref Terry et al., 2010, cited from earlier work; for Specific binding (%) / VT (striatum) Baseline / VT (striatum) Preblocked: monkey striatum
[4] = biological target: T1, CB1 receptor; settings: cited from earlier work; for VT / Intersubject Variability of VT (SD/mean): human; for VT: mean±SD
[5] = human parietal cortex, displacement of [3H]MePPEP, n=6
[6] = Frontal, n=17, 150min, ref Terry et al, 2009
[7] = Putamen, n=17, 150min, ref Terry et al, 2009
[8] = Thalamus, n=17, 150min, ref Terry et al, 2009
[9] = Cingulate, n=10, 90min, ref Wong et al, 2010
[10] = Globus pallidus, n=10, 90min, ref Wong et al, 2010
[11] = Putamen, n=10, 90min, ref Wong et al, 2010
[12] = Frontal, n=9, 120min, ref Terry et al., 2010
[13] = Putamen, n=9, 120min, ref Terry et al., 2010
[14] = Thalamus, n=9, 120min, ref Terry et al., 2010

T1 sequence (P21554 whole entry): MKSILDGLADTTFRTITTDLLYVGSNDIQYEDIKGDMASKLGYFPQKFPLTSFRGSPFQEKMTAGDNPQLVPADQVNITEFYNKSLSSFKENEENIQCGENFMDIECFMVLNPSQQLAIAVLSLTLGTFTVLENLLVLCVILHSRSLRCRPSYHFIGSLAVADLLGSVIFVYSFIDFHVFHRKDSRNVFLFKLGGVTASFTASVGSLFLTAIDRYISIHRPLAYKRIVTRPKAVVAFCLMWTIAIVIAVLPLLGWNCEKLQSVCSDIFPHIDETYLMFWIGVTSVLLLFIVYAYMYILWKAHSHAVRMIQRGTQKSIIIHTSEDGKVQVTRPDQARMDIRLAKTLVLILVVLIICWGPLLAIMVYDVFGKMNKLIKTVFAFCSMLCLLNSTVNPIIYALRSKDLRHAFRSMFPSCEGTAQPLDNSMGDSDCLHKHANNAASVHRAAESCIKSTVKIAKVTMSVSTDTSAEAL

**Q.** For COc1ccc(-c2c(C#N)c(C(=O)NN3CCCCC3)nn2-c2ccc(Cl)cc2Cl)cc1 [OMAR], which Ki [1, 5] is on record?
**A.** 2.05 nM

**Q.** Which LogD7.4 [2] does the source give for C[C@@H](N[C@@H]1C[C@H](c2cccc(O[11CH3])c2)N(c2ccc(C(F)(F)F)cc2)C1=O)c1ccccc1 [^11C-MePPEP] here?
**A.** 4.77±0.27

**Q.** What about the “Specific binding (%)” value [3] of the same compound?
**A.** 88%

**Q.** What about the “VT (striatum) Baseline” value [3] of the same compound?
**A.** 24.3 mL·cm^−3

**Q.** What about the “VT (striatum) Preblocked” value [3] of the same compound?
**A.** 2.9 mL·cm^−3

**Q.** And the VT [4, 6]?
**A.** 22.4±12.8 mL · cm^−3

**Q.** And the “Intersubject Variability of VT (SD/mean)” value [4, 6]?
**A.** 57%

**Q.** And the VT [4, 7]?
**A.** 29.1±17.4 mL · cm^−3

**Q.** What about the “Intersubject Variability of VT (SD/mean)” value [4, 7] of the same compound?
**A.** 60%

**Q.** And the VT [4, 8]?
**A.** 11.2±5.0 mL · cm^−3

**Q.** What about the “Intersubject Variability of VT (SD/mean)” value [4, 8] of the same compound?
**A.** 44%

**Q.** Which results are given for COc1ccc(-c2c(C#N)c(C(=O)NN3CCCCC3)nn2-c2ccc(Cl)cc2Cl)cc1 [^11C-OMAR]?
**A.** Ki [1]: 2.05 nM; VT [4, 9]: 1.23±0.16 mL · cm^−3; Intersubject Variability of VT (SD/mean) [4, 9]: 13%; VT [4, 10]: 1.47±0.25 mL · cm^−3; Intersubject Variability of VT (SD/mean) [4, 10]: 17%; VT [4, 11]: 1.32±0.20 mL · cm^−3; Intersubject Variability of VT (SD/mean) [4, 11]: 15%

**Q.** With N#Cc1ccc(S(=O)(=O)NC(=N)N2CC(c3ccccc3)C(c3ccc(Cl)cc3)=N2)cc1 (stereo not drawn) [^11C-SD5024, [cyano-^11C](−)-3-(4-chlorophenyl)-N-[(4-cyanophenyl)sulfonyl]-4-phenyl-4,5-dihydro-1H-pyrazole-1-carboxamidine] as the compound, how does the Ki [1, 5] read?
**A.** 0.47 nM

**Q.** Which LogD7.4 [2] does the source give for [2H]C([18F])Oc1cccc([C@H]2C[C@@H](N[C@H](C)c3ccccc3)C(=O)N2c2ccc(C(F)(F)F)cc2)c1 (stereo partly shown) [^18F-FMPEP-d2] here?
**A.** 4.24±0.08

**Q.** And the “percentage of specific binding in monkey brain” value ([3]; monkey brain)?
**A.** 85%

**Q.** And the “Specific binding (%)” value [3]?
**A.** 85%

**Q.** And the “VT (striatum) Baseline” value [3]?
**A.** 35.4 mL·cm^−3

**Q.** And the “VT (striatum) Preblocked” value [3]?
**A.** 5.4 mL·cm^−3

**Q.** What about the VT [4, 12] of the same compound?
**A.** 22.7±6.4 mL · cm^−3

**Q.** And the “Intersubject Variability of VT (SD/mean)” value [4, 12]?
**A.** 28%

**Q.** And the VT [4, 13]?
**A.** 24.3±7.2 mL · cm^−3

**Q.** And the “Intersubject Variability of VT (SD/mean)” value [4, 13]?
**A.** 29%

**Q.** And the VT [4, 14]?
**A.** 9.6±2.5 mL · cm^−3

**Q.** And the “Intersubject Variability of VT (SD/mean)” value [4, 14]?
**A.** 26%

**Q.** What about the peak brain uptake ([4]; species not given, ref Terry et al., 2010) of the same compound?
**A.** ~ 6 SUV

**Q.** With Cc1ccc(OC(C)(C)C(=O)N[C@@H](C)[C@@H](Cc2ccc(OCCF)cc2)c2cccc(C#N)c2)nc1 [^18F-MK-9470] as the compound, how does the “Intersubject Variability of VT (SD/mean)” value ([4]; Frontal, n=12, 700, 360, 150min, ref Sanabria-Bohórquez et al., 2010) read?
**A.** 58%

**Q.** And the “Intersubject Variability of VT (SD/mean)” value ([4]; Putamen, n=12, 700, 360, 150min, ref Sanabria-Bohórquez et al., 2010)?
**A.** 53%

**Q.** What about the “Intersubject Variability of VT (SD/mean)” value ([4]; Thalamus, n=12, 700, 360, 150min, ref Sanabria-Bohórquez et al., 2010) of the same compound?
**A.** 60%

From article PMC3849221 (NeuroImage, 2013)
